Results from ChEMBL document CHEMBL1136253 (Bioorg Med Chem Lett, 2003).

Biological target: T1, Corticotropin-releasing factor receptor 1 (Homo sapiens, UniProt P34998)
T1 sequence (P34998 whole entry): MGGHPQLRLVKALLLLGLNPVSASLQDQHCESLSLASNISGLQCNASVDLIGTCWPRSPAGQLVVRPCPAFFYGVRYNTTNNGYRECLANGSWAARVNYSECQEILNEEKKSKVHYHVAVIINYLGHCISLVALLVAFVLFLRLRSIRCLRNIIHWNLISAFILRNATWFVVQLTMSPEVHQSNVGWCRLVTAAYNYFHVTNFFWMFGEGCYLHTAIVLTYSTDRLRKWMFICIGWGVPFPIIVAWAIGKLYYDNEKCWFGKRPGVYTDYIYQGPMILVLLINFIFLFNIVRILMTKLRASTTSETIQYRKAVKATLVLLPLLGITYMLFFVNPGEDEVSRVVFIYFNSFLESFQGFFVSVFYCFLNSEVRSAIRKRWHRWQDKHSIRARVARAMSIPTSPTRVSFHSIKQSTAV
Test: Inhibition of (Corticotropin-Releasing Factor Receptor) CRF-stimulated cAMP production
Format: functional

Question: `CCCN(CC1CC1)c1cc(C)nc2c(-c3ccc(Cl)cc3Cl)nn(C)c12` was tested. Which IC50 did it give?
Answer: 16 nM

Biological target: T1, Corticotropin-releasing factor receptor 1
Test: Binding affinity towards Corticotropin releasing factor receptor 1 was measured through displacement of [125I]sauvagine expressed in HEK293 cells
Format: cell-based

Question: With `CCCCCCN(CCOC)c1cc(C)nc2c(-c3ccc(Cl)cc3Cl)nn(C)c12` as the molecule, how does the Ki read?
Answer: 4 nM

Question: How did the Ki turn out when `CCCC(CO)Nc1cc(C)nc2c(-c3ccc(Cl)cc3Cl)nn(C)c12` (stereo unspecified) was run?
Answer: 62 nM

Question: Which Ki does the source give for `COCCN(C)c1cc(C)nc2c(-c3ccc(Cl)cc3Cl)nn(C)c12` here?
Answer: 32 nM

Question: For `CCCN(CC)c1cc(C)nc2c(-c3ccc(Cl)cc3Cl)nn(C)c12`, which Ki is on record?
Answer: 4.1 nM

Question: How did the Ki turn out when `CCCN(CCCOC)c1cc(C)nc2c(-c3ccc(Cl)cc3Cl)nn(C)c12` was run?
Answer: 9.8 nM

Question: How did the Ki turn out when `CCCCN(CCSC)c1cc(C)nc2c(-c3ccc(Cl)cc3Cl)nn(C)c12` was run?
Answer: 1.4 nM

Question: For `CCCCN(CCCC)c1cc(C)nc2c(-c3c(C)cc(C)cc3C)nn(C)c12`, which Ki is on record?
Answer: 5.1 nM

Question: `CCCCNc1cc(C)nc2c(-c3ccc(Cl)cc3Cl)nn(C)c12` was tested. Which Ki did it give?
Answer: 170 nM

Question: How did the Ki turn out when `CCN(CCOC)c1cc(C)nc2c(-c3ccc(Cl)cc3Cl)nn(C)c12` was run?
Answer: 3.2 nM

Question: Which Ki does the source give for `CCCCCN(CCOC)c1cc(C)nc2c(-c3ccc(Cl)cc3Cl)nn(C)c12` here?
Answer: 6.7 nM

Question: How did the Ki turn out when `CCCCN(CCCC)c1cc(C)nc2c(-c3ccc(Cl)cc3)nn(C)c12` was run?
Answer: 340 nM

Question: Which Ki does the source give for `Cc1cc(N(CC(C)C)CC2CC2)c2c(n1)c(-c1ccc(Cl)cc1Cl)nn2C` here?
Answer: 3.7 nM

Question: With `CCCCCN(CC)c1cc(C)nc2c(-c3ccc(Cl)cc3Cl)nn(C)c12` as the molecule, how does the Ki read?
Answer: 1.3 nM

Question: For `CCCCN(CCCC)c1cc(C)nc2c(-c3ccc(C)cc3Cl)nn(C)c12`, which Ki is on record?
Answer: 2.8 nM

Question: For `CCCCCN(CCCC)c1cc(C)nc2c(-c3ccc(Cl)cc3Cl)nn(C)c12`, which Ki is on record?
Answer: 0.9 nM

Question: `CCCCN(CCCOC)c1cc(C)nc2c(-c3ccc(Cl)cc3Cl)nn(C)c12` was tested. Which Ki did it give?
Answer: 18 nM

Question: How did the Ki turn out when `CCCCN(CCCC)c1cc(C)nc2c(-c3ccc(OC)cc3Cl)nn(C)c12` was run?
Answer: 4.8 nM

Question: `CCN(CCCOC)c1cc(C)nc2c(-c3ccc(Cl)cc3Cl)nn(C)c12` was tested. Which Ki did it give?
Answer: 12.5 nM

Question: For `CCCN(C)c1cc(C)nc2c(-c3ccc(Cl)cc3Cl)nn(C)c12`, which Ki is on record?
Answer: 24 nM

Question: Which Ki does the source give for `CCCCCCN(CC1CC1)c1cc(C)nc2c(-c3ccc(Cl)cc3Cl)nn(C)c12` here?
Answer: 1 nM

Question: How did the Ki turn out when `CCCN(CCOC)c1cc(C)nc2c(-c3ccc(Cl)cc3Cl)nn(C)c12` was run?
Answer: 5.1 nM

Question: For `CCCCN(CCc1ccccn1)c1cc(C)nc2c(-c3ccc(Cl)cc3Cl)nn(C)c12`, which Ki is on record?
Answer: 13 nM

Question: Which Ki does the source give for `CCCCCN(CCC)c1cc(C)nc2c(-c3ccc(Cl)cc3Cl)nn(C)c12` here?
Answer: 1.2 nM

Question: For `CCCCN(CC1CCCN1C)c1cc(C)nc2c(-c3ccc(Cl)cc3Cl)nn(C)c12` (stereo unspecified), which Ki is on record?
Answer: 380 nM

Question: How did the Ki turn out when `CCCCN(CCCC)c1cc(C)nc2c(-c3c(C)cc(C)cc3Cl)nn(C)c12` was run?
Answer: 2.1 nM

Question: With `CCCCN(CCOC)c1cc(C)nc2c(-c3ccc(Cl)cc3Cl)nn(C)c12` as the molecule, how does the Ki read?
Answer: 10.4 nM

Question: For `COCCN(c1cc(C)nc2c(-c3ccc(Cl)cc3Cl)nn(C)c12)C(C)C`, which Ki is on record?
Answer: 9.7 nM

Question: Which Ki does the source give for `Cc1cc(NCc2ccc(O)cc2)c2c(n1)c(-c1ccc(Cl)cc1Cl)nn2C` here?
Answer: > 10000 nM

Question: `CCCN(Cc1ccc(O)cc1)c1cc(C)nc2c(-c3ccc(Cl)cc3Cl)nn(C)c12` was tested. Which Ki did it give?
Answer: 13 nM

Question: With `COCCN(CCOC)c1cc(C)nc2c(-c3ccc(Cl)cc3Cl)nn(C)c12` as the molecule, how does the Ki read?
Answer: 8.2 nM

Question: With `CCCCCN(CC1CC1)c1cc(C)nc2c(-c3ccc(Cl)cc3Cl)nn(C)c12` as the molecule, how does the Ki read?
Answer: 1.5 nM

Question: For `CCCCN(c1cc(C)nc2c(-c3ccc(Cl)cc3Cl)nn(C)c12)C(CC)CC`, which Ki is on record?
Answer: 7 nM

Question: Which Ki does the source give for `CCCCN(CC1CCCO1)c1cc(C)nc2c(-c3ccc(Cl)cc3Cl)nn(C)c12` (stereo unspecified) here?
Answer: 11.2 nM

Question: How did the Ki turn out when `CCCN(CCO)c1cc(C)nc2c(-c3ccc(Cl)cc3Cl)nn(C)c12` was run?
Answer: 4.4 nM

Question: For `CCN(CC1CC1)c1cc(C)nc2c(-c3ccc(Cl)cc3Cl)nn(C)c12`, which Ki is on record?
Answer: 4.4 nM

Question: How did the Ki turn out when `CCCCN(CCc1ccncc1)c1cc(C)nc2c(-c3ccc(Cl)cc3Cl)nn(C)c12` was run?
Answer: 34 nM

Question: With `CCCCN(CC1CC1)c1cc(C)nc2c(-c3ccc(Cl)cc3Cl)nn(C)c12` as the molecule, how does the Ki read?
Answer: 1.3 nM

Question: `CCCCN(Cc1ccncc1)c1cc(C)nc2c(-c3ccc(Cl)cc3Cl)nn(C)c12` was tested. Which Ki did it give?
Answer: 68 nM

Question: For `COCCN(CC(C)C)c1cc(C)nc2c(-c3ccc(Cl)cc3Cl)nn(C)c12`, which Ki is on record?
Answer: 10.5 nM

Biological target: T1, Corticotropin-releasing factor receptor 1
Test: Inhibition of Corticotropin releasing factor receptor 1-stimulated cAMP production
Format: functional

Question: `CCN(CCOC)c1cc(C)nc2c(-c3ccc(Cl)cc3Cl)nn(C)c12` was tested. Which IC50 did it give?
Answer: 15 nM

Question: For `CCCCN(CCCC)c1cc(C)nc2c(-c3ccc(Cl)cc3Cl)nn(C)c12`, which IC50 is on record?
Answer: 5 nM

Question: `CCCN(CCOC)c1cc(C)nc2c(-c3ccc(Cl)cc3Cl)nn(C)c12` was tested. Which IC50 did it give?
Answer: 36 nM

Question: Which IC50 does the source give for `COCCN(CCOC)c1cc(C)nc2c(-c3ccc(Cl)cc3Cl)nn(C)c12` here?
Answer: 38 nM

Question: Which IC50 does the source give for `CCCN(CCO)c1cc(C)nc2c(-c3ccc(Cl)cc3Cl)nn(C)c12` here?
Answer: 18 nM

Question: For `CCCCN(CC1CC1)c1cc(C)nc2c(-c3ccc(Cl)cc3Cl)nn(C)c12`, which IC50 is on record?
Answer: 3 nM
